According to patent publication US20080063670A1, “Nitroimidazole composition and method” (priority 2006, published 2008):
Values belong to the compound of their own block, whether it stands above or below them.

Tests used:
[1] = Solubilization of nitroimidazoles in water with and without acids: crystals forced at about 4° C., re-dissolution observed at about 20° C. over about 14 days; type: physicochemical; set-up: key to crystals present: − means no crystals present; + means crystal are present; details: for crystals present: water, about 20° C., 14 days
Procedure: Heat was applied, if necessary, to dissolve the nitroimidazole. No organic co-solvents, water-soluble vitamins, or cyclodextrins were present in the solutions. The amount of acid was selected to be about equimolar with the amount of nitroimidazole added. After the nitroimidazole was dissolved, each solution was cooled to about 4° C. to force crystallization of some of the nitroimidazole. If crystals were not observed upon cooling, seed crystals of nitroimidazole were added and the solution were again maintained at about 4° C. […] The absence of crystals after 14 days indicates effective dissolution of the nitroimidazole.

[2] = in water at neutral pH; cited from earlier work

- crystals present ([1]; Metronidazole Concentration 0.8%, Acid: Acetic (about equimolar)): −
- crystals present ([1]; Metronidazole Concentration 0.8%, Acid: Hydrochloric (about equimolar)): −
- crystals present ([1]; Metronidazole Concentration 0.8%, Acid: None): −
- crystals present ([1]; Metronidazole Concentration 0.8%, Acid: Tartaric (about equimolar)): −
- crystals present ([1]; Metronidazole Concentration 1.0%, Acid: Acetic (about equimolar)): −
- crystals present ([1]; Metronidazole Concentration 1.0%, Acid: Citric (about equimolar)): −
- crystals present ([1]; Metronidazole Concentration 1.0%, Acid: Hydrochloric (about equimolar)): −
- crystals present ([1]; Metronidazole Concentration 1.0%, Acid: None): +
- crystals present ([1]; Metronidazole Concentration 1.0%, Acid: Tartaric (about equimolar)): −
- crystals present ([1]; Metronidazole Concentration 1.2%, Acid: Acetic (about equimolar)): +
- crystals present ([1]; Metronidazole Concentration 1.2%, Acid: Hydrochloric (about equimolar)): +
- crystals present ([1]; Metronidazole Concentration 1.2%, Acid: Tartaric (about equimolar)): −
- crystals present ([1]; Metronidazole Concentration […], Acid: Citric (about equimolar)): −
- crystals present ([1]; Metronidazole Concentration […], Acid: None): +
- concentration of solutions free from crystals ([1]; at 20° C., utilizing organic acids (e.g., acetic acid, citric acid, tartaric acid, and malic acid)): at least 1 percent by weight
Compound: Cc1ncc([N+](=O)[O-])n1CCO [Metronidazole, 1-(2-hydroxyethyl)-2-methyl-5-nitroimidazole]
- solubility in water [2]: less than 1 percent by weight

- crystals present ([1]; Tinidazole Concentration 0.45%, Acid: Acetic (about equimolar)): −
- crystals present ([1]; Tinidazole Concentration 0.45%, Acid: Citric (about equimolar)): −
- crystals present ([1]; Tinidazole Concentration 0.45%, Acid: Hydrochloric (about equimolar)): −
- crystals present ([1]; Tinidazole Concentration 0.45%, Acid: None): −
- crystals present ([1]; Tinidazole Concentration 0.45%, Acid: Tartaric (about equimolar)): −
- crystals present ([1]; Tinidazole Concentration 0.50%, Acid: Acetic (about equimolar)): −
- crystals present ([1]; Tinidazole Concentration 0.50%, Acid: Citric (about equimolar)): −
- crystals present ([1]; Tinidazole Concentration 0.50%, Acid: Hydrochloric (about equimolar)): −
- crystals present ([1]; Tinidazole Concentration 0.50%, Acid: None): +
- crystals present ([1]; Tinidazole Concentration 0.50%, Acid: Tartaric (about equimolar)): −
- crystals present ([1]; Tinidazole Concentration 0.55%, Acid: Acetic (about equimolar)): +
- crystals present ([1]; Tinidazole Concentration 0.55%, Acid: Citric (about equimolar)): −
- crystals present ([1]; Tinidazole Concentration 0.55%, Acid: Hydrochloric (about equimolar)): −
- crystals present ([1]; Tinidazole Concentration 0.55%, Acid: None): +
- crystals present ([1]; Tinidazole Concentration 0.55%, Acid: Tartaric (about equimolar)): −
- crystals present ([1]; Tinidazole Concentration 0.60%, Acid: Acetic (about equimolar)): +
- crystals present ([1]; Tinidazole Concentration 0.60%, Acid: Citric (about equimolar)): +
- crystals present ([1]; Tinidazole Concentration 0.60%, Acid: Hydrochloric (about equimolar)): +
- crystals present ([1]; Tinidazole Concentration 0.60%, Acid: None): +
- crystals present ([1]; Tinidazole Concentration 0.60%, Acid: Tartaric (about equimolar)): +
- concentration obtained (as high as), free from crystals ([1]; at 20° C., utilizing citric acid and using tartaric acid): about 0.55 percent by weight
Compound: CCS(=O)(=O)CCn1c([N+](=O)[O-])cnc1C [Tinidazole, 1-[2-(ethylsulfonyl)ethyl]-2-methyl-5-nitroimidazole]
- solubility in water [2]: about 0.45 percent by weight
